Read-outs that look alike come from different tables or passages of the source.
Key:
Format in all cases: cell-based
M4 muscarinic receptor = molecular target: T1, M4 muscarinic receptor (Homo sapiens, UniProt P08173); assay: Functional mobilization of intracellular calcium (FLIPR) in CHO cells expressing M4; conditions: for EC50: CHO cells expressing M4, FLIPR calcium; for Emax: CHO; for M4 Activity: CHO cells expressing M4, FLIPR calcium assay
T1 construct: expressed in transfected cells; host or cells: CHO (M4-CHO)
T1 sequence (P08173 1-479): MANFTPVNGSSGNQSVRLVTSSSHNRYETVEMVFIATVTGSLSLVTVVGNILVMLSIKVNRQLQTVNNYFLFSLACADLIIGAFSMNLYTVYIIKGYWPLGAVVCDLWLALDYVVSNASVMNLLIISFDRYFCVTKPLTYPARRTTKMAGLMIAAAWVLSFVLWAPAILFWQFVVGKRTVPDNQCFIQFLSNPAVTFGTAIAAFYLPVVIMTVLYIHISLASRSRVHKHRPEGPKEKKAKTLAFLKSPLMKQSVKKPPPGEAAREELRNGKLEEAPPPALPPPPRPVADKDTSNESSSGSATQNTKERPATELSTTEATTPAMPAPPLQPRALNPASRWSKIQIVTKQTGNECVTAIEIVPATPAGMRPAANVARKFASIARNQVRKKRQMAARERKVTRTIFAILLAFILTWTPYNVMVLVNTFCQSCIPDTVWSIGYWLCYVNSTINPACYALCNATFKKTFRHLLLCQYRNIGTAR
How it was run: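 Recombinant CHO cells loaded with Fluo-3 AM or Calcium 3 dye in pH 7.4 buffer containing 1 mM probenecid, with 0.5% final DMSO. For agonism, compound is added directly. For inhibition, it is preincubated 15 min, or co-applied, before carbachol at EC80. FLIPR fluorescence (ex 488, em 540 nm) is recorded for 60 s.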

M2 muscarinic receptor = molecular target: T2, M2 muscarinic receptor (Homo sapiens, UniProt P08172); assay: Functional mobilization of intracellular calcium (FLIPR) in CHO cells expressing M2; conditions: for EC50: CHO cells expressing M2, FLIPR calcium; for Emax: CHO; for M2 Activity: CHO cells expressing M2, FLIPR calcium assay
T2 construct: expressed in transfected cells; host or cells: CHO (M2-CHO)
T2 sequence (P08172 1-466): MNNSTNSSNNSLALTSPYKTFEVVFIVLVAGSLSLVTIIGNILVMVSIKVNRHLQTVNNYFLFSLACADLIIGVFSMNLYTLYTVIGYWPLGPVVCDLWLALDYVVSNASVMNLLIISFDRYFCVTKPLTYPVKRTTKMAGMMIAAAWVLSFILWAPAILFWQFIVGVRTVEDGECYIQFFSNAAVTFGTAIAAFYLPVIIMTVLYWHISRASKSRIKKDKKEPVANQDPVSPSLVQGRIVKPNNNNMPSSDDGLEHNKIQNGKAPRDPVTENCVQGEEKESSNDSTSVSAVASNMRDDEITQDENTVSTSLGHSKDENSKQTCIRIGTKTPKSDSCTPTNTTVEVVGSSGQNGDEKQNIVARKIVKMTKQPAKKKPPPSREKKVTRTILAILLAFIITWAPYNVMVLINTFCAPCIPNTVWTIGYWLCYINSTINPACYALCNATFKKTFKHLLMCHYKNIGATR
How it was run: (§1)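 Calcium flux is read on FLIPR over 60 sec at 488/540 nm in muscarinic-receptor CHO lines. Antagonist mode adds carbachol at EC80 after 15 min compound preincubation or with simultaneous co-application. Agonist mode adds compound alone. Cells carry Fluo-3 or Calcium 3 dye in probenecid-containing pH 7.4 buffer, 0.5% DMSO final.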

M3 muscarinic receptor = molecular target: T3, M3 muscarinic receptor (Homo sapiens, UniProt P20309); assay: Functional mobilization of intracellular calcium (FLIPR) in CHO cells expressing M3; conditions: for EC50: CHO cells expressing M3, FLIPR calcium; for Emax: CHO; for M3 Activity: CHO cells expressing M3, FLIPR calcium assay
T3 construct: expressed in transfected cells; host or cells: CHO (M3-CHO)
T3 sequence (P20309 whole entry): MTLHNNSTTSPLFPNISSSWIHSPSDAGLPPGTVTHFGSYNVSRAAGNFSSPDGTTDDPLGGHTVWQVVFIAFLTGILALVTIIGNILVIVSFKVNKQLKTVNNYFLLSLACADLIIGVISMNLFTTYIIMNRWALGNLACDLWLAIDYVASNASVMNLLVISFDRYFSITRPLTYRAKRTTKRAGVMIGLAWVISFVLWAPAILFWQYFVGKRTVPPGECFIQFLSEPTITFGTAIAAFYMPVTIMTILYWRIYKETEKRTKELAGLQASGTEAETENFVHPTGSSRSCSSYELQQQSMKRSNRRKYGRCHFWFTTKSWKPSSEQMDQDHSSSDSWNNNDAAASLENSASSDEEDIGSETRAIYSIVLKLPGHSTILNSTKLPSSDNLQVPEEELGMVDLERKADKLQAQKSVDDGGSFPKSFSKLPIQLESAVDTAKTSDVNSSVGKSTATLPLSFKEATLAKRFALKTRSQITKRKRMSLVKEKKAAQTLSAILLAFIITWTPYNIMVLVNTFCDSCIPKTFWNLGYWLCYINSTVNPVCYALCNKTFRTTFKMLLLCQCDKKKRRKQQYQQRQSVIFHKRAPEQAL
How it was run: as §1

M1 muscarinic receptor = molecular target: T4, M1 muscarinic receptor (Homo sapiens, UniProt P11229); assay: Functional mobilization of intracellular calcium (FLIPR) in CHO cells expressing M1; conditions: for EC50: CHO cells expressing M1, FLIPR calcium; for Emax: CHO; for M1 Activity: CHO cells expressing M1, FLIPR calcium assay
T4 construct: expressed in transfected cells; host or cells: CHO (M1-CHO)
T4 sequence (P11229 1-460): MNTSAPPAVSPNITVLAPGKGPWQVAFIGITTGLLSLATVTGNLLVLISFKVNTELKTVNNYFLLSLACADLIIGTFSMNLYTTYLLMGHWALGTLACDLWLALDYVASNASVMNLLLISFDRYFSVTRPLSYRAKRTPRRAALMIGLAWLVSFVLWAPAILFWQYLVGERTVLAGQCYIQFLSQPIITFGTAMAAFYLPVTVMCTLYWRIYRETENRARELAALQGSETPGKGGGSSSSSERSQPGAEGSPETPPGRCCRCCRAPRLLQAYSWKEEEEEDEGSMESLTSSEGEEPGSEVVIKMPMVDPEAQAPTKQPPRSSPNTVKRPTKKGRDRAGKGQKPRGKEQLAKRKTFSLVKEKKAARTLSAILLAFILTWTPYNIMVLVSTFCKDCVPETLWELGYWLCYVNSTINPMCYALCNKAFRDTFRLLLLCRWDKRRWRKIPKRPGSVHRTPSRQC
How it was run: as §1

[1] = 100% = maximum response obtained with the Carbachol control, read-out: M4 Efficacy
[2] = 100% = maximum response obtained with the Carbachol control, read-out: M2 Efficacy
[3] = 100% = maximum response obtained with the Carbachol control, read-out: M3 Efficacy
[4] = 100% = maximum response obtained with the Carbachol control, read-out: M1 Efficacy
[5] = 100% efficacy = maximum response obtained with the Carbachol control

| SMILES | EC50 (M4 muscarinic receptor) | Emax (M4 muscarinic receptor; [1]) | EC50 (M2 muscarinic receptor) | Emax (M2 muscarinic receptor; [2]) | EC50 (M3 muscarinic receptor) | Emax (M3 muscarinic receptor; [3]) | EC50 (M1 muscarinic receptor) | Emax (M1 muscarinic receptor; [4]) | M4 Activity (M4 muscarinic receptor) | Emax (M4 muscarinic receptor; [5]) | M2 Activity (M2 muscarinic receptor) | Emax (M2 muscarinic receptor; [5]) | M3 Activity (M3 muscarinic receptor) | Emax (M3 muscarinic receptor; [5]) | M1 Activity (M1 muscarinic receptor) | Emax (M1 muscarinic receptor; [5]) |
| --- | --- | --- | --- | --- | --- | --- | --- | --- | --- | --- | --- | --- | --- | --- | --- | --- |
| CC(C)(C)CCN1CCC2(CC[C@H](NC(=O)CCN3CCCC3=O)c3ccc(F)cc32)CC1 [compound 138] | < 2000 nM | 25 to 100% | < 2 µM | 25 to 100% | > 5 µM | < 25% | < 2000 nM | 25 to 100% |  |  |  |  |  |  |  |  |
| CCC(CC)CN1CCC2(CC[C@H](NC(C)=O)c3ccccc32)CC1 [compound 73] | < 2000 nM | 25 to 100% | > 5 µM | < 25% | > 5 µM | < 25% | < 2000 nM | 25 to 100% |  |  |  |  |  |  |  |  |
| COC(=O)N(C)[C@H]1CCC2(CCN(CCC(C)(C)C)CC2)c2ccccc21 [compound 174] | < 2000 nM | 25 to 100% | > 5 µM | < 25% | > 5 µM | < 25% | 2000 to 5000 nM | 25 to 100% |  |  |  |  |  |  |  |  |
| CCN(C(=O)Cc1ccccn1)[C@H]1CCC2(CCN(CCC(C)(C)C)CC2)c2ccccc21 [compound 198] |  |  |  |  |  |  |  |  | +++ (activity was measured to be less than 2.0 μM) | 25 to 100% | ++ (activity was measured to be from 2.0 μM to 5.0 μM) | < 25% | + (activity was measured to be greater than 5.0 μM) | < 25% | +++ (activity was measured to be less than 2.0 μM) | 25 to 100% |
| CC(=O)N1CCCC[C@H]1C(=O)N[C@H]1CCC2(CCN(CCC(C)(C)C)CC2)c2cc(F)ccc21 [compound 83] | < 2000 nM | 25 to 100% | > 5 µM | < 25% | > 5 µM | < 25% | < 2000 nM | 25 to 100% |  |  |  |  |  |  |  |  |
| CC(=O)N[C@@H]1CCC2(CCN(CCC(C)(C)C)CC2)c2ccccc21 [compound 64] | < 2000 nM | 25 to 100% | > 5 µM | < 25% | > 5 µM | < 25% | 2000 to 5000 nM | < 25% |  |  |  |  |  |  |  |  |
| Cn1cnc(C(=O)N[C@H]2CCC3(CCN(CCC(C)(C)C)CC3)c3ccccc32)c1 [compound 98] | < 2000 nM | 25 to 100% | > 5 µM | < 25% | > 5 µM | < 25% | < 2000 nM | 25 to 100% |  |  |  |  |  |  |  |  |
| COC(=O)CCCN1CCC2(CC1)C[C@H](NC(C)=O)c1ccccc12 [compound 237] |  |  |  |  |  |  |  |  | + (activity was measured to be greater than 5.0 μM) | 25 to 100% | + (activity was measured to be greater than 5.0 μM) | < 25% | + (activity was measured to be greater than 5.0 μM) | < 25% | + (activity was measured to be greater than 5.0 μM) | 25 to 100% |
| Cc1cc(C(=O)N[C@H]2CCC3(CCN(CCC(C)(C)C)CC3)c3ccccc32)nn1C [compound 151] | < 2000 nM | 25 to 100% | > 5 µM | < 25% | > 5 µM | < 25% | < 2000 nM | 25 to 100% |  |  |  |  |  |  |  |  |
| CCN(C(=O)c1cncn1C)[C@@H]1CCC2(CCN(CCC(C)(C)C)CC2)c2ccccc21 [compound 101] | 2000 to 5000 nM | 25 to 100% | > 5 µM | < 25% | > 5 µM | < 25% | < 2000 nM | 25 to 100% |  |  |  |  |  |  |  |  |
